Measured values from paper PMC9105386, “Development and Characterization of Indole-Responsive Whole-Cell Biosensor Based on the Inducible Gene Expression System from Pseudomonas putida KT2440” (International Journal of Molecular Sciences, 2022).

Molecular target: T1, TrpI (PpTrpI/PPP_RS00425 inducible system) (Pseudomonas putida, UniProt Q88RP5)
T1 sequence (Q88RP5 1-298): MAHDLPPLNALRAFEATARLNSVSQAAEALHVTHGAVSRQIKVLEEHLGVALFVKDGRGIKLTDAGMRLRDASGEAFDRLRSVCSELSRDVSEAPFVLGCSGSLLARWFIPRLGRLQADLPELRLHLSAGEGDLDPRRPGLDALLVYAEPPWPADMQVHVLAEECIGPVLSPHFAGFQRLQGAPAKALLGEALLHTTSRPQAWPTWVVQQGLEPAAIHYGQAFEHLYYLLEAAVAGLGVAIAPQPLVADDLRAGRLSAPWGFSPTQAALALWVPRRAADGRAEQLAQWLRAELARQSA
Assay: RFP reporter induction in whole cells, Hill fit
Type: cell-based
Conditions: read-out: Km
Excerpt: RFP reporter induction in whole cells, Hill fit on TrpI (PpTrpI/PPP_RS00425 inducible system)

## c1ccc2[nH]ccc2c1 [compound 1, indole]
  EC50: 1350 µM
